# Assay results: article PMC9994261 (Cell, 2023)
# Where two headings read alike, the source gives them in different places.
# Columns and labels:
# CYP3A4 = target: T1, CYP3A4 (Homo sapiens, UniProt P08684); experiment: CYP3A4 reversible inhibition in human liver microsomes; type: in vitro ADME
# T1 construct: human liver microsomes (purchased from BD Gentest as a pooled batch from 150 donors); tissue BD Gentest Cat#452117; host or cells: pooled human liver microsomes (150 donors)
# Experimental: Incubations were performed with 0.1 mg/mL human liver microsomes (purchased from BD Gentest as a pooled batch from 150 donors) in a final incubation volume of 0.25 mL. The incubation medium contained 0.05 M phosphate buffer (pH 7.4) containing an NADPH regenerating system (including 1.3 mM NADP, 3.3 mM glucose 6-phosphate,3.3 mM MgCl2, and 1.0 U/mL glucose 6-phosphate dehydrogenase). Probe CYP3A4 substrates (midazolam at 3 μM and testosterone at 50 μM), were incubated for 10 and 30 min, respectively, with increasing concentrations of GM, MGM or CGM (concentration range: 1 - 30 μM). The reaction was stopped by adding acetonitrile to precipitate the proteins. The incubation mixtures were then centrifuged for 5 min at 10,000 × g, and an aliquot of the supernatant was analyzed using high-performance liquid chromatography coupled to mass spectrometry for the assessment of 1’-hydroxymidazolam and 6β-hydroxytestosterone metabolite formation.
# Mtb H37Rv = experiment: microbe, parasite or virus in culture; type: cell-based, Mycobacterium tuberculosis
# T1 sequence (P08684 whole entry): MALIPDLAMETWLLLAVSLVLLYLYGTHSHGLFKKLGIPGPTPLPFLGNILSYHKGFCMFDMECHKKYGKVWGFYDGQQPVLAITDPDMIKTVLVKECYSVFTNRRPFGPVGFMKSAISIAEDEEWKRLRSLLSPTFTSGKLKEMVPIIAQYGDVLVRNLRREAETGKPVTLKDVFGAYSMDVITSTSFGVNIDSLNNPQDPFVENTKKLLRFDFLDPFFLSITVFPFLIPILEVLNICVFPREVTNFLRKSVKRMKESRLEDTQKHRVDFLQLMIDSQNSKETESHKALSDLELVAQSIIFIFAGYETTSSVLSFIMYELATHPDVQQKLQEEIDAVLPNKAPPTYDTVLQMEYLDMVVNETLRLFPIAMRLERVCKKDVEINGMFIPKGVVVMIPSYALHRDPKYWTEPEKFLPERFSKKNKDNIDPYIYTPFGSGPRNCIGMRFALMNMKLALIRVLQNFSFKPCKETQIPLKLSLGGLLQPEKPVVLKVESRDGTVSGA
smiles,measurement,setting,value
CON=C1CC(C)OC(OC2C(C)CC(C)(OC(=O)NC(C)(C)CNS(=O)(=O)c3ccccc3)C(=O)C(C)C(OC(=O)CC(C)C)C(C)C(C(C)COC3OC(C)C(O)C(OC)C3OC)OC(=O)C(C)C(OC3CC(C)N(C)CC(C)O3)C2C)C1O (stereo not drawn) [SEQ-9],Cytochrome 3A4 inhibition (in words),CYP3A4,abolished
same,IC50 at 10 min,"CYP3A4; human, microsomes, pH 7.4, midazolam, read-out: CYP3A4 inhibition, IC50 with midazolam as substrate",> 30 µM
same,IC50 at 30 min,"CYP3A4; human, microsomes, pH 7.4, testosterone, read-out: CYP3A4 inhibition, IC50 with testosterone as substrate (T)",> 50 µM
same,MIC,"Mtb H37Rv; Mycobacterium tuberculosis, ERDMAN / H37Rv, H37Rv/Erdman, read-out: MIC (μM) for Mtb in liquid culture",0.7 µM
same,MIC,"Mtb H37Rv; Mycobacterium tuberculosis, H37RV, read-out: MIC for Mtb in liquid culture",0.7 µM
same,MIC,Mtb H37Rv; read-out: MIC for Mtb in liquid culture,0.70 µM
